Test results: patent US10801035B2, “Plants having increased tolerance to herbicides” (BASF SE, priority 2011, dated 2020)
pKi: −log10 of the molar value.

What was measured:
[1] = biological target: T1, Hordeum HPPD variant L320N (Hordeum vulgare, UniProt O48604, A164G/L320N/R146V/R147D/R148G); test: HPPD activity assay, Hordeum HPPD mutant L320N; format: biochemical; conditions: normalized on wildtype
T1 construct: His6; made in house; host or cells: E. coli BL21 (DE3)
Experimental: (§1) HPPD produces homogentisic acid and CO2 from 4-hydroxyphenylpyruvate (4-HPP) and O2. The activity assay for HPPD is based on the analysis of homogentisic acid by reversed phase HPLC.
The assay mixture can contain 150 mM potassium phosphate buffer pH 7.0, 50 mM L-ascorbic acid, 1 μM FeSO4 and 7 μg of purified enzyme in a total volume of 1 ml. Inhibitors are dissolved in DMSO (dimethylsulfoxide) to a concentration of 20 mM or 0.5 mM, respectively. From this stock solution serial five-fold dilutions are prepared in DMSO, which are used in the assay. The respective inhibitor solution accounts for 1% of the assay volume. Thus, final inhibitor concentrations range from 200 μM to 2.5 nM or from 5 μM to 63 pM, respectively. After a preincubation of 30 min the reaction is started by adding 4-HPP to a final concentration of 0.1 mM. […]
Inhibitors are dissolved in DMSO (dimethylsulfoxide) to a concentration of 0.5 mM. […] IC50 values are calculated using non-linear regression.
Purified, mutant HPPD enzymes are obtained by the methods described above. […] Apparent michaelis constants (Km) and maximal reaction velocities (Vmax) are calculated by non-linear regression with the software GraphPad Prism 5 (GraphPad Software, La Jolla, USA) using a substrate inhibition model. […] Weighted means (by standard error) of Km and […] values are calculated from at least three independent experiments. […]

[2] = biological target: T2, Hordeum HPPD (SEQ ID: 1/2) (Hordeum vulgare, UniProt O48604, A164G/R146V/R147D/R148G); test: HPPD activity assay, wildtype Hordeum HPPD; format: biochemical; conditions: for pKi: Cheng-Prusoff from IC50, read-out: Ki (dissociation constant); for TI (tolerance index): not normalized
T2 construct: His6; made in house; host or cells: E. coli BL21 (DE3)
T2 sequence (O48604 whole entry R146V/R147D/R148G/A164G): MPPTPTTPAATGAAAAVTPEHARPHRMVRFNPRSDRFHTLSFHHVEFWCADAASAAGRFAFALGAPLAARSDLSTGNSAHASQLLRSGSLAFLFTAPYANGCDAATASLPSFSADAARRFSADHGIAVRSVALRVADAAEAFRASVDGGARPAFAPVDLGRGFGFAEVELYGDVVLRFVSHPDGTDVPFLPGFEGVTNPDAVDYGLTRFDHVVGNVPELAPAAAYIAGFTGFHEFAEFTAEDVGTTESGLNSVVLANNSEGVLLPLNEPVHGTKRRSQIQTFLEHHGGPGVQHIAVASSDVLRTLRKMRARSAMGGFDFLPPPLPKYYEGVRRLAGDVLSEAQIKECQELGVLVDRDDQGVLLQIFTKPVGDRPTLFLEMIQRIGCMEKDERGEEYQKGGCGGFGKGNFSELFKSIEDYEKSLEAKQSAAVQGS
Experimental: as §1
The assay mixture can contain 150 mM potassium phosphate buffer pH 7.0, 50 mM L-ascorbic acid, 1 μM FeSO4 and 7 μg of purified enzyme in a total volume of 1 ml. Inhibitors are dissolved in DMSO (dimethylsulfoxide) to a concentration of 20 mM or 0.5 mM, respectively. From this stock solution serial five-fold dilutions are prepared in DMSO, which are used in the assay. The respective inhibitor solution accounts for 1% of the assay volume. Thus, final inhibitor concentrations range from 200 μM to 2.5 nM or from 5 μM to 63 pM, respectively. After a preincubation of 30 min the reaction is started by adding 4-HPP to a final concentration of 0.1 mM. The reaction is allowed to proceed for 120 min at room temperature. The reaction is stopped by addition of 100 μl of 4.5 M phosphoric acid.
Activities are normalized by setting the uninhibited enzyme activity to 100%. […] values are calculated using non-linear regression.
The assay mixture can contain 150 mM potassium phosphate buffer pH 7.0, 50 mM L-ascorbic acid, 100 μM Catalase (Sigma-Aldrich), 1 μM FeSO4 and 0.2 units of purified HPPD enzyme in a total volume of 505 μl. 1 unit is defined as the amount of enzyme that is required to produce 1 nmol of HGA per minute at 20° C.
Inhibitors are dissolved in DMSO (dimethylsulfoxide) to a concentration of 0.5 mM. From this stock solution serial five-fold dilutions are prepared in DMSO, which are used in the assay. The respective inhibitor solution accounts for 1% of the assay volume. Thus, final inhibitor concentrations range from 5 μM to 320 pM, respectively. Activities are normalized by setting the uninhibited enzyme activity to 100%. IC50 values are calculated using non-linear regression.
Using methods which are described in the above examples or well known in the art, purified, recombinant wildtype HPPD enzymes are characterized with respect to their kinetic properties and sensitivity towards HPPD inhibiting herbicides. Apparent michaelis constants (Km) and maximal reaction velocities (Vmax) are calculated by non-linear regression with the software GraphPad Prism 5 (GraphPad Software, La Jolla, USA) using a substrate inhibition model. Apparent kcat values are calculated from Vmax assuming 100% purity of the enzyme preparation. Weighted means (by standard error) of Km and […] values are calculated from at least three independent experiments. The Cheng-Prusoff equation for competitive inhibition (Cheng, Y. C.; Prusoff, W. H. Biochem Pharmacol 1973, 22, 3099-3108) is used to calculate dissociation constants (Ki).
Field performance of the HPPD enzyme, which is used as a herbicide tolerance trait may depend not only on its lack of sensitivity towards HPPD inhibiting herbicides but also on its activity. To assess the potential performance of a herbicide tolerance trait a tolerance index (TI) is calculated using the following formula: […]
Easy comparison and ranking of each trait is enabled by normalizing every tolerance index on Hordeum HPPD.

[3] = tested on: transgenic Arabidopsis plants overexpressing Barley HPPD (Seq ID: 2); test: Arabidopsis growth inhibition in 48-well plates, line overexpressing Barley HPPD; format: in vivo, Arabidopsis thaliana; conditions: Barley HPPD (Seq ID: 2) overexpression line; plant growth IC50 of transgenic divided by wildtype
Experimental: Depending on the species, the plants are kept at 10-25° C. or 20-35° C. The test period extends over 3 weeks. During this time, the plants are tended and their response to the individual treatments is evaluated. Herbicide injury evaluations are taken at 2 and 3 weeks after treatment. Plant injury is rated on a scale of 0 to 9, 0 being no injury and 9 being complete death. Tolerance to coumarone-derivative herbicides can also be assessed in Arabidopsis. In this case transgenic Arabidopsis thaliana plants are assayed for improved tolerance to coumarone-derivative herbicides in 48-well plates. Seeds are surface sterilized by stirring for 5 min in ethanol+water (70+30 by volume), rinsing one time with ethanol+water (70+30 by volume) and two times with a sterile, deionized water. The seeds are resuspended in 0.1% agar dissolved in water (w/v). Four to five seeds per well are plated on solid nutrient medium consisting of half-strength Murashige Skoog nutrient solution, pH 5.8 (Murashige and Skoog (1962) Physiologia Plantarum 15: 473-497). […] Seven to ten days after seeding growth inhibition is evaluated by comparison to wild type plants. Tolerance factor is calculated by dividing the plant growth IC50 value of transgenic plants containing a HPPD and/or HST sequence by that of wildtype plants. […]

[4] = Hordeum HPPD Wild-type, normalized on wildtype (Table 10)
[5] = Hordeum HPPD, normalized on Hordeum HPPD (Table 7)

T1 sequence (O48604 whole entry R146V/R147D/R148G/A164G/L320N): as the sequence (O48604 whole entry R146V/R147D/R148G/A164G) above, with L320N counted along it

Row | SMILES | Normalized tolerance index (TI) [1] | Normalized tolerance index (TI) [2, 4] | pKi ([2]; Hordeum HPPD) | Normalized tolerance index (TI) [2, 5] | TI (tolerance index) ([2]; Hordeum HPPD) | Tolerance factor [3]
1 | O=S1(=O)C(c2c(Cl)cc(Cl)nc2Cl)=C(O)c2ncccc2N1CC(F)F [Inhibitor 2, 1-(2,2-difluoroethyl)-2,2-dioxo-3-(2,4,6-trichloro-3-pyridyl)pyrido[3,2-c]thiazin-4-ol] | 1.7 | 1 | 8.59 | 1 | 1.13E−3 | 4
2 | CC1=NOC(c2c(Cl)ccc(C3=C(O)c4ncccc4N(CC(F)F)S3(=O)=O)c2Cl)C1 (stereo not drawn) [Inhibitor 1, 3-[2,4-dichloro-3-(3-methyl-4,5-dihydroisoxazol-5-yl)phenyl]-1-(2,2-difluoroethyl)-2,2-dioxo-pyrido[3,2-c]thiazin-4-ol] | 3.3 | 1 | 8.57 | 1 | 1.19E−3 | 3
